From patent US8911953B2, “TDF-related compounds and analogs thereof, analogs and bioactive fragments” (Thrasos Innovation, Inc., priority 2005, dated 2014) come the findings set out here.

“Also recorded” adds a separate entry of the source. Positions of bridges follow the written chain, without caps; N, C: chain ends. No end group written: not given here.

The test system of experiment [1] is cisplatin-treated Sprague-Dawley rats. The experiment can be described thus: Rat cisplatin model of acute kidney injury. The format is in vivo. The note with it: for ICAM-1 in kidney sections: anti-ICAM-1 staining; for ICAM-1 in kidney sections / proliferating cells / cellular regeneration (PCNA) / macrophages accumulating in the kidneys: b674: 2.8 mg/kg bw; for proliferating cells / cellular regeneration (PCNA): anti-PCNA staining; for macrophages accumulating in the kidneys: macrophage-specific marker. An excerpt: The rat cisplatin model has been studied extensively and is considered a relevant model for human acute kidney injury. Kidneys from cisplatin-treated animals show little evidence of cell proliferation. In contrast, animals that are protected or are able to recover from the nephrotoxic effects of cisplatin treatment show proliferation as detected by anti-proliferating cell nuclear antigen or PCNA antibodies. This model provides a mechanism for identifying agents that can protect the kidney from inflammatory cytokine-mediated injury, as well as, in repairing organ damage. Macrophages infiltrate the kidneys of animals treated with cisplatin and this early marker of nephropathy can be detected using anti CD-68 antibodies. Agents that decrease the number of macrophages in kidneys and prevent inflammatory cell-mediated damage associated with cisplatin treatment can be detected using immuno-histological analysis. Kidney sections treated with agents that show increased expression of α-actin in smooth muscle cells (SMC) are indicative of protecting the in integrity of SMC and alleviating injurious damage to the kidney.
Male Sprague-Dawley rats (˜250 gm) are injected ip with 5 mg/kg cisplatin (1 mg/ml in water) at time zero to induce acute renal failure. In this model, clinical signs (rise in serum creatinine) peaks at 4 to 5 days. The test compound and control substances were administered iv via the tail vein as 0.5 ml slow bolus injections. The negative control substance was the vehicle (PBS pH 7.2+5% Mannitol), while the positive control therapy was recombinant human mature BMP-7 (BMP-7 or TDF-1). The end points are serum creatinine and BUN levels and histology.
TDFRP Compound (SEQ ID NO:45) was tested in male Sprague-Dawley rats (250 gm to 300 gm) to establish the dose range and the extent to which the compound is able to prophylactically and therapeutically ameliorate the renal toxic effects of cisplatin. The cisplatin dosing level was the chemotherapeutic level used in humans, 40 ug/kg bw. The end points were the level of creatinine in serum and kidney histology. […]
A stock solution (70 mg/ml) of TDFRP (SEQ ID NO:45) was made by dissolving it in 20 mM Acetate (ph 4.2). The stock solution was further diluted into phosphate buffered saline (PBS, pH 7.2) plus 5% Mannitol to compound concentrations of 14 mg/ml (28 mg/kg dose), 1.4 mg/ml (2.8 mg/kg dose) and 0.14 mg/ml (0.28 mg/kg dose).
Cisplatin was administered via i.p. injection (40 ug/kg bw) at time zero. Administration of therapeutic dosing of the compound, the BMP-7 positive control and vehicle negative control were by slow bolus i.v. injection through the tail vein at five time points: 2 hours before the administration of cisplatin, then at 24 hours, 48 hours, 72 hours and 96 hours post cisplatin administration. Blood samples were collected through the tail vein at time points of 0, 24, 48, 72 and 96 hours. At seven day sample was collected by exsanguination at sacrifice. Serum was prepared from the blood samples and analyzed for creatinine concentration. The serum concentration of creatinine, a byproduct of muscle activity that is released into the blood stream and cleared through the kidneys, is a marker of kidney function that tends to rise when kidney function becomes severely compromised (FIG. 21).
Upon sacrifice at seven days, the kidneys were harvested, fixed in formalin and imbedded in paraffin. They were then sagitally sectioned and stained in H&E stain. Kidney sections were also stained with anti-bodies against proliferating cell nuclear antigen (PCNA) (to identify sites of cell regeneration), macrophages, I-CAM-1, and smooth muscle. Also collected at sacrifice were tissues at and around the injection site (FIGS. 22, 25, 26).

Experiment [2] concerns rats with coronary artery ligation. The experiment can be described thus: Left anterior descending (LAD) coronary occlusion model of myocardial injury. The note with it: for reduction in AN/AR ratio as compared to PBS-treated animals: Day 7. The format is in vivo, rat. The protocol:
Schematic of the Left Anterior Descending […] (LAD) occlusion model of myocardial injury. The image represents a cross section through the heart of rats showing that treatment with TDFRP or BMP prevents ischemic injury. Left anterior descending arteries were occluded for 20 minutes to induce ischemia. Upon removal of the ligature, blood flow into the heart causes reperfusion injury and apoptosis. After seven days, the heart was stained with Evan's blue dye to differentiate the perfused, unaffected area from the occluded region (area at risk). Four doses of TDFRP (SEQ ID NO:45) were used in the treated animals (pre-occlusion, and 24, 48 and 72 hrs post-occlusion). A) left anterior descending coronary artery ligated to create ischemia, B) infarct areas (IA), C) the unaffected, perfused region. Dyed blue at sacrifice, D) ventricular lumen, E) approximate regional boundary, F) the affected (ischemic) region (AR). Where reperfusion injury leads to apoptosis
The efficacy of TDFRP compound (SEQ ID NO:45) in ameliorating the effects of myocardial ischemia was investigated in the rat after ligation of the coronary artery. […] unmanipulated rats, sorted into two large groups by initial body weight (>300 g pre-surgery) were evaluated. Fourteen rats underwent surgery on week, 12 rats underwent surgery on week 2 and rats were sorted into 3 treatment groups: Group 1, PBS; Group 2, positive control TDF-1; Group 3, test article TDFRP (SEQ ID NO:45) (see Table 13).
Three days prior to surgery, a serum sample was collected from the tail vein of each rat (pre-bleed). On the day of surgery, each rat was administered compound intravenously 2 hr prior to surgery. Surgery was performed sequentially after intubation and ventilation with 0.5% isofluorane anesthetic. Lead II ECG was monitored throughout the surgery. A thoracotomy was performed and the main left coronary artery was occluded for 20 min using a snare technique (FIG. 19). Successful occlusion of the artery was confirmed by ST elevation in lead II ECG within the first 5 minutes of ligation, and by frequent ventricular arrhythmia after 10 minutes of ligation. The snare was released to restore blood flow. The original suture loop was left in place for subsequent re-occlusion on Day 7. After initiation of reperfusion, the chest cavity was closed with 2 layers of suture. Rats were weaned from the ventilator and observed until fully conscious and mobile. Antibiotic (QD) and analgesic (Q8D) were provided. Additional serum samples were collected 6, 24, 72 and 120 hours post occlusion. Additional compound, positive control or vehicle treatments were delivered by intravenous injection in the tail vein at 24, 72 and 120 hours post occlusion.
On Day 7, each rat was anesthetized (ketamine:xyline), the chest cavity re-opened and a terminal blood sample (1 ml) was withdrawn from the abdominal vein. Gross pathology (i.e. inflammation) was noted and graded on a 4 point inflammation scale: 0=no inflammation, 1=slight, 2=moderate, 3=severe and 4=complete pericarditis. The left coronary artery was then re-occluded using the existing stitch and a concentrated solution of Evans Blue dye in saline (20 mg/ml; 0.5 ml/rat) was injected into the heart apex to stain the non-ischemic cardiac tissue blue. The heart was then arrested by injection of a saturated solution of potassium chloride into the right ventricle. The heart was then excised, wrapped in cellophane and stored at −20° C. for 1.5 hour. The cold heart was cut into 10 cross-sectional slices (2 mm/slice) and each section was numbered and incubated separately in triphenyltetrazolium chloride (1% TTC in PBS) for 10 minutes at 37° C. prior to fixing in 4% formaldehyde. Subsequently, each slice was photographed. For each slice, the “area at risk (AR)” and the “area occupied by necrosis (AN)” were measured by morphometry. The ratio of AN to AR is a measure of the degree of damage resulting from the occlusion (FIG. 20).

“CYFDDSSNVLCKKYRS (disulfide 1-11 (inferred); not fully specified) [SEQ ID NO:45]”: the “tubule structure of the kidney (H&E sections)” value in experiment [1] (2.8 mg/kg b.w.) is “improved”. In addition, in experiment [1] (2.8 mg/kg bw), the “cisplatin-induced inflammation of the kidney cortex” value is reported as “significantly reduced” and the smooth muscle loss result was “reduced”. In addition, in experiment [1] (28 mg/kg bw i.v.), the “serum creatinine at the highest dose” value is “more efficacious than the positive control; also recorded: return closer to base-line levels”. Besides, in experiment [1] (0.28, 2.8 and 28 mg/kg bw i.v.), the “cisplatin-induced level of creatinine in serum” value is listed as “reduces”. In addition, in experiment [1], the “ICAM-1 in kidney sections” value is “reduced”, the “proliferating cells / cellular regeneration (PCNA)” value is “increased the degree of cellular regeneration” and the “macrophages accumulating in the kidneys” value was “reduced”. Also, in experiment [1] (listed as SEQ ID NO 45), the “ICAM-1 in kidney sections” value was “less ICAM-positive material”, the “proliferating cells / cellular regeneration (PCNA)” value is “Proliferating cells are observed” and the “macrophages accumulating in the kidneys” value is “less macrophages”. In addition, in experiment [1] (rat, in vivo), the “nephrotoxic effects of cisplatin exposure” value is on record as “reduce or ameliorate”; the “renal tubular morphology (tubular atrophy, necrosis and dilation)” value is “improved the morphology and structure of the kidney tubules”. In experiment [2] (10 mg/kg i.v.), the “reduction in AN/AR ratio as compared to PBS-treated animals” value worked out at 84%. Besides, the “reduction in inflammation score as compared to PBS-treated animals” value in experiment [2] (10 mg/kg i.v., Day 7, 4 point inflammation scale) turned out to be 78%. Besides, in experiment [2] (myocardial ischemia and reperfusion injury), the “inflammation and cytotoxic effects toward cardiomyocytes following myocardial infarction” value is “ameliorate inflammation and cytotoxic effects”. In experiment [2] (rat, in vivo), the “degree of cardiac inflammation” value is “reduces” and the “necrotic area to area at risk ratio (IA/AR)” value was “reduces”.

B1: BMP-7: recombinant human mature BMP-7 (BMP-7 or TDF-1), positive control therapy (protein)
chain: STGSKQRSQNRSKTPKNQEALRMANVAENSSSDQRQACKKHELYVSFRDLGWQDWIIAPEGYAAYYCEGECAFPLNSYMNATNHAIVQTLVHFINPETVPKPCCAPTQLNAISVLYFDDSSNVILKKYRNMVVRACGCH
With B1, the “peak serum creatinine levels in response to cisplatin” value in experiment [1] (BMP-7 30 ug/kg bw and 200 ug/kg bw) is “lower peak serum creatinine levels”. Besides, the “renal tubular morphology (tubular atrophy, necrosis and dilation)” value in experiment [1] (rat, in vivo) is “Improvement of Renal Tubular Morphology”. In addition, the “reduction in AN/AR ratio as compared to PBS-treated animals” value in experiment [2] (160 μg/kg i.v.) is 7%.
